Reference: ChEMBL document CHEMBL3885881, “DrugMatrix”

Organism: Rattus norvegicus
Test: DrugMatrix - Regimen: Daily Repeat
Format: toxicity, organism-based, Sprague-Dawley
Set-up: regimen Daily Repeat, gender Male, age 6-8 weeks
Settings: in vivo, po, route oral GAVAGE, vehicle .5 % CMC; for ABSOLUTE BASOPHIL / ABSOLUTE EOSINOPHIL / ABSOLUTE LYMPHOCYTE / ABSOLUTE MONOCYTE / ABSOLUTE SEGMENTED NEUTROPHIL / BASOPHIL / EOSINOPHIL / ERYTHROCYTE COUNT / HEMATOCRIT / HEMOGLOBIN / LEUKOCYTE COUNT / LYMPHOCYTE / MEAN CORPUSCULAR HEMOGLOBIN / MEAN CORPUSCULAR HEMOGLOBIN CONCENTRATION / MEAN CORPUSCULAR VOLUME / MONOCYTE / NEUTROPHIL / NUCLEATED RED BLOOD CELLS / PLATELET COUNT: tissue Blood; for ALANINE AMINOTRANSFERASE / ALBUMIN / ALKALINE PHOSPHATASE / ASPARTATE AMINOTRANSFERASE / BLOOD UREA NITROGEN / CARBON DIOXIDE / CHLORIDE / CHOLESTEROL / CREATINE PHOSPHOKINASE / CREATININE / GLUCOSE / LACTATE DEHYDROGENASE / LIPASE / PHOSPHORUS / POTASSIUM / SODIUM / TOTAL BILIRUBIN / TOTAL PROTEIN / URIC ACID: tissue Plasma
[1] = 200 mg/kg, 120 h, dose level Low, time 5 day
[2] = 2500 mg/kg, 72 h, dose level High, time 3 day
[3] = 2500 mg/kg, 120 h, dose level High, time 5 day

Question: What does the source list for `Cc1cnc(C(=O)NCCc2ccc(S(=O)(=O)NC(=O)NC3CCCCC3)cc2)cn1` [GLIPIZIDE]?
Answer: ABSOLUTE BASOPHIL [1]: 0 CELLS/uL; ABSOLUTE EOSINOPHIL [1]: 50.67 CELLS/uL; ABSOLUTE LYMPHOCYTE [1]: 13488 CELLS/uL; ABSOLUTE MONOCYTE [1]: 195 CELLS/uL; ABSOLUTE SEGMENTED NEUTROPHIL [1]: 633 CELLS/uL; BASOPHIL [1]: 0%; EOSINOPHIL [1]: 0.33%; ERYTHROCYTE COUNT [1]: 5.57 x10E6/uL; HEMATOCRIT [1]: 34.23%; HEMOGLOBIN [1]: 13.7 G/DL; LEUKOCYTE COUNT [1]: 14.37 x10E3/uL; LYMPHOCYTE [1]: 94%; MEAN CORPUSCULAR HEMOGLOBIN [1]: 24.63 pg; MEAN CORPUSCULAR HEMOGLOBIN CONCENTRATION [1]: 40 G/DL; MEAN CORPUSCULAR VOLUME [1]: 61.53 fL; MONOCYTE [1]: 1.33%; NEUTROPHIL [1]: 4.33%; NUCLEATED RED BLOOD CELLS [1]: 0 /100WBC; PLATELET COUNT [1]: 1282.33 x10E3/uL; ALANINE AMINOTRANSFERASE [1]: 62.33 u/L; ALBUMIN [1]: 4.3 G/DL; ALKALINE PHOSPHATASE [1]: 343.67 u/L; ASPARTATE AMINOTRANSFERASE [1]: 82.67 u/L; BLOOD UREA NITROGEN [1]: 14 mg/dL; CARBON DIOXIDE [1]: 32.33 mmol/L; CHLORIDE [1]: 103 MEQ/L; CHOLESTEROL [1]: 74.67 mg/dL; CREATINE PHOSPHOKINASE [1]: 208.33 u/L; CREATININE [1]: 0.13 mg/dL; GLUCOSE [1]: 118.67 mg/dL; LACTATE DEHYDROGENASE [1]: 116.33 u/L; LIPASE [1]: 10.67 u/L; PHOSPHORUS [1]: 10.77 mg/dL; POTASSIUM [1]: 6.11 MEQ/L; SODIUM [1]: 144.93 MEQ/L; TOTAL BILIRUBIN [1]: 0.2 mg/dL; TOTAL PROTEIN [1]: 6.03 G/DL; URIC ACID [1]: 0.9 mg/dL; ABSOLUTE BASOPHIL [2]: 0 CELLS/uL; ABSOLUTE EOSINOPHIL [2]: 83.33 CELLS/uL; ABSOLUTE LYMPHOCYTE [2]: 11306.67 CELLS/uL; ABSOLUTE MONOCYTE [2]: 81.67 CELLS/uL; ABSOLUTE SEGMENTED NEUTROPHIL [2]: 861.67 CELLS/uL; BASOPHIL [2]: 0%; EOSINOPHIL [2]: 0.67%; ERYTHROCYTE COUNT [2]: 5.69 x10E6/uL; HEMATOCRIT [2]: 36.9%; HEMOGLOBIN [2]: 14.23 G/DL; LEUKOCYTE COUNT [2]: 12.33 x10E3/uL; LYMPHOCYTE [2]: 91.67%; MEAN CORPUSCULAR HEMOGLOBIN [2]: 25.07 pg; MEAN CORPUSCULAR HEMOGLOBIN CONCENTRATION [2]: 38.57 G/DL; MEAN CORPUSCULAR VOLUME [2]: 64.9 fL; MONOCYTE [2]: 0.67%; NEUTROPHIL [2]: 7%; NUCLEATED RED BLOOD CELLS [2]: 0 /100WBC; PLATELET COUNT [2]: 1346.67 x10E3/uL; ALANINE AMINOTRANSFERASE [2]: 54 u/L; ALBUMIN [2]: 4.17 G/DL; ALKALINE PHOSPHATASE [2]: 318.33 u/L; ASPARTATE AMINOTRANSFERASE [2]: 75.33 u/L; BLOOD UREA NITROGEN [2]: 16 mg/dL; CARBON DIOXIDE [2]: 31 mmol/L; CHLORIDE [2]: 102.33 MEQ/L; CHOLESTEROL [2]: 72.33 mg/dL; CREATINE PHOSPHOKINASE [2]: 179.33 u/L; CREATININE [2]: 0.15 mg/dL; GLUCOSE [2]: 148.67 mg/dL; LACTATE DEHYDROGENASE [2]: 104.33 u/L; LIPASE [2]: 10 u/L; PHOSPHORUS [2]: 11.9 mg/dL; POTASSIUM [2]: 6.37 MEQ/L; SODIUM [2]: 143.83 MEQ/L; TOTAL BILIRUBIN [2]: 0.17 mg/dL; TOTAL PROTEIN [2]: 5.63 G/DL; URIC ACID [2]: 1.7 mg/dL; ABSOLUTE BASOPHIL [3]: 0 CELLS/uL; ABSOLUTE EOSINOPHIL [3]: 102.33 CELLS/uL; ABSOLUTE LYMPHOCYTE [3]: 11867.33 CELLS/uL; ABSOLUTE MONOCYTE [3]: 0 CELLS/uL; ABSOLUTE SEGMENTED NEUTROPHIL [3]: 1397 CELLS/uL; BASOPHIL [3]: 0%; EOSINOPHIL [3]: 0.67%; ERYTHROCYTE COUNT [3]: 5.55 x10E6/uL; HEMATOCRIT [3]: 34.63%; HEMOGLOBIN [3]: 14.1 G/DL; LEUKOCYTE COUNT [3]: 13.37 x10E3/uL; LYMPHOCYTE [3]: 88%; MEAN CORPUSCULAR HEMOGLOBIN [3]: 25.4 pg; MEAN CORPUSCULAR HEMOGLOBIN CONCENTRATION [3]: 40.73 G/DL; MEAN CORPUSCULAR VOLUME [3]: 62.37 fL; MONOCYTE [3]: 0%; NEUTROPHIL [3]: 11.33%; NUCLEATED RED BLOOD CELLS [3]: 0 /100WBC; PLATELET COUNT [3]: 1273.67 x10E3/uL; ALANINE AMINOTRANSFERASE [3]: 58 u/L; ALBUMIN [3]: 4.37 G/DL; ALKALINE PHOSPHATASE [3]: 329 u/L; ASPARTATE AMINOTRANSFERASE [3]: 83.33 u/L; BLOOD UREA NITROGEN [3]: 15 mg/dL; CARBON DIOXIDE [3]: 30.67 mmol/L; CHLORIDE [3]: 100.67 MEQ/L; CHOLESTEROL [3]: 71 mg/dL; CREATINE PHOSPHOKINASE [3]: 224.33 u/L; CREATININE [3]: 0.19 mg/dL; GLUCOSE [3]: 140.33 mg/dL; LACTATE DEHYDROGENASE [3]: 117 u/L; LIPASE [3]: 7.67 u/L; PHOSPHORUS [3]: 11.13 mg/dL; POTASSIUM [3]: 5.21 MEQ/L; SODIUM [3]: 146.2 MEQ/L; TOTAL BILIRUBIN [3]: 0.2 mg/dL; TOTAL PROTEIN [3]: 6.17 G/DL; URIC ACID [3]: 0.8 mg/dL
